From patent US9586952B2, “Polycyclic estrogen receptor modulators and uses thereof” (SERAGON PHARMACEUTICALS, INC., priority 2013, dated 2017) come the findings set out here.

One assay concerns MCF-7 cells. Nature of the assay: MCF7 Viability Assay (Breast Cancer Cell Viability Assay). The note with it: 5 days' compound exposure, CellTiter-Glo; for IC50: Homo sapiens, MCF7, 120 h. It is filed as cell-based. The protocol:
MCF-7 cells were adjusted to a concentration of 20,000 cells per mL in RPMI containing 10% FBS and 20 mM HEPES. 16 microliters of the cell suspension (320 cells) was added to each well of a 384 well plate, and the cells were incubated overnight to allow the cells to adhere. The following day an eleven point, serial semilog dilution of each compound was added to the cells in 16 μL at a final concentration ranging from 0.3-0.000003 μM. After 5 days' compound exposure, 16 μL of CellTiter-GLo (Promega, Madison Wis.) was added to the cells, and the relative luminescence units (RLUs) of each well were determined. CellTiter-Glo added to 32 μL of medium without cells was used to obtain a background value. The Percent viability of each sample was determined as follows: (RLU sample-RLU background/RLU untreated cells-RLU background)×100=% viability.

A further assay concerns the target T1, ER-α (Homo sapiens, UniProt P03372).
T1 construct: endogenous in cells; host or cells: MCF-7
T1 sequence (P03372 1-595): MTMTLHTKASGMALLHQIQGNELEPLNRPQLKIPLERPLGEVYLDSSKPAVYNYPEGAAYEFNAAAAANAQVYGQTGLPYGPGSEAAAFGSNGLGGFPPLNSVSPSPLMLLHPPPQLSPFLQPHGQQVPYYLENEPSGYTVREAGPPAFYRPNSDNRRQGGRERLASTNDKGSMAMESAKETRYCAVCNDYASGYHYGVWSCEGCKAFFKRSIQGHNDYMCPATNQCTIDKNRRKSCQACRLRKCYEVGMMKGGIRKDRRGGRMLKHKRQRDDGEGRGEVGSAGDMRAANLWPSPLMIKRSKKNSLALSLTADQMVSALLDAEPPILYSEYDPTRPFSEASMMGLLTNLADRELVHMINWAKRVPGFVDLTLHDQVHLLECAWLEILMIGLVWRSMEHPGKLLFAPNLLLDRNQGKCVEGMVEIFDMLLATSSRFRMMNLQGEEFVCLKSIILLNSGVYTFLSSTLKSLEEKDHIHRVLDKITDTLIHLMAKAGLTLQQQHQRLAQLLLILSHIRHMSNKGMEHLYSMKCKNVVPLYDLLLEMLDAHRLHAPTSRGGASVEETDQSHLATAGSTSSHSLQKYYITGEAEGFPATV
Briefly: Breast Cancer Cell ER-α In Cell Western Assay (SP1). It is filed as cell-based. The note with it: MCF-7 cells, 4 or 24 hr post compound addition, SP1 antibody; for Emax: MCF7, read-out: ER-α In Cell Western Assay (SP1) Max Response; for DC50: read-out: ER-α In Cell Western Assay (SP1) IC50. The protocol: MCF-7 cells were adjusted to a concentration of 200,000 cells per mL in RPMI containing 10% charcoal-stripped FBS and 20 mM HEPES. 16 microliters of the cell suspension (3200 cells) was added to each well of a poly-D-lysine 384 well plate, and the cells were incubated overnight to allow the cells to adhere. The following day an eleven point, serial semilog dilution of each compound was added to the cells in 16 μL at a final concentration ranging from 0.3-0.000003 μM. At 4 or 24 hr post compound addition, the cells were fixed (10% formalin in PBS) for 20 minutes. Cells were permeablized in PBS 0.1% Triton and blocked with LICOR blocking buffer (50 μl/well, 90′). The wells were then incubated overnight at 4° C. with SP1 rabbit monoclonal Ab (Thermo Scientific) diluted 1:1000 in LICOR blocking buffer/0.1% Tween-20. Wells which were treated with blocking buffer with Tween but no antibody were used as a background control. Wells were washed with 0.1% Tween-20/PBS and then incubated in goat anti-rabbit IRDye™ 800 CW (LICOR Inc.; 1:10000) and DRAQ5 DNA dye (1:2000 for 2 mM stock) diluted in LICOR blocking buffer containing 0.1% Tween-20 and 0.01% SDS for 60 minutes. Cells were washed (50 μl/well, 5′ each) in 0.1% Tween-20/PBS. Plates were scanned on a LICOR Odyssey infrared imaging system. Integrated intensities in the 800 nm channel and 700 nm channel were measured to determine levels of ER and DNA respectively. Percent ER levels were determined as follows: (Integrated intensity 800 nm sample/integrated intensity 700 nm sample)/(Integrated intensity 800 nm untreated cells/integrated intensity 700 nm untreated cells)×100=% ER levels.

For `O=C(O)/C=C/c1ccc(/C(=C(\c2ccc(F)cc2Cl)C2CCC2)c2ccc(-c3cncs3)cc2)cc1` [Example 33, (E)-3-(4-((E)-2-(2-Chloro-4-fluorophenyl)-2-cyclobutyl-1-(4-(thiazol-5-yl)phenyl)vinyl)phenyl)acrylic acid], in the assay with MCF-7 cells, the “MCF7 Viability Assay Max Response” value is recorded as “++ (++ = a single % value ≧ 40%)” and the IC50 is not above 100 nM. Also, on ER-α, the Emax is not below 40% and the DC50 was not above 100 nM.

On to `O=C(O)/C=C/c1ccc(/C(=C(\c2ccncc2Cl)C2CCC2)c2ccc(-c3cncs3)cc2)cc1` [Example 34, (E)-3-(4-((E)-2-(3-Chloropyridin-4-yl)-2-cyclobutyl-1-(4-(thiazol-5-yl)phenyl)vinyl)phenyl)acrylic acid], for which, in the assay on MCF-7 cells, the “MCF7 Viability Assay Max Response” value is “++ (++ = a single % value ≧ 40%)” and the IC50 was not above 100 nM. Also, at ER-α, the Emax was not below 40% and the DC50 is not above 100 nM.

In the case of `Cc1cscc1/C(=C(\c1ccc(/C=C/C(=O)O)cc1)c1ccc(-c2cncs2)cc1)C1CCC1` [Example 35, (E)-3-(4-((E)-2-Cyclobutyl-2-(4-methylthiophen-3-yl)-1-(4-(thiazol-5-yl)phenyl)vinyl)phenyl)acrylic acid], in the assay on MCF-7 cells, the “MCF7 Viability Assay Max Response” value is listed as “++ (++ = a single % value ≧ 40%)” and the half-inhibitory concentration (IC50) is not above 100 nM. Also, at ER-α, the Emax is not below 40% and the DC50 was not above 100 nM.

`O=C(O)/C=C/c1ccc(/C(=C(\c2ccc(F)cc2Cl)C2CCC2)c2ccc(N3CCOCC3)cc2)cc1` [Example 36, (E)-3-(4-((E)-2-(2-Chloro-4-fluorophenyl)-2-cyclobutyl-1-(4-morpholinophenyl)vinyl)phenyl)acrylic acid]: in the assay on MCF-7 cells, the “MCF7 Viability Assay Max Response” value is given as “++ (++ = a single % value ≧ 40%)” and the IC50 was not above 100 nM. In addition, at ER-α, the Emax is not below 40% and the DC50 is not above 100 nM.

For `O=C(O)/C=C/c1ccc(/C(=C(\c2ccc(F)cc2Cl)C2CCC2)c2ccc(-c3cn[nH]c3)cc2)cc1` [Example 37, (E)-3-(4-((E)-1-(4-(1H-Pyrazol-4-yl)phenyl)-2-(2-chloro-4-fluorophenyl)-2-cyclobutylvinyl)phenyl)acrylic acid], in the assay with MCF-7 cells, the “MCF7 Viability Assay Max Response” value is listed as “++ (++ = a single % value ≧ 40%)” and the IC50 is not above 100 nM. On ER-α, the Emax was not below 40% and the DC50 was not above 100 nM.

For the compound `Cc1cscc1/C(=C(\c1ccc(/C=C/C(=O)O)cc1)c1ccc(-c2cn[nH]c2)cc1)C1CCC1` [Example 38, (E)-3-(4-((E)-1-(4-(1H-Pyrazol-4-yl)phenyl)-2-cyclobutyl-2-(4-methylthiophen-3-yl)vinyl)phenyl)acrylic acid], in the assay on MCF-7 cells, the “MCF7 Viability Assay Max Response” value was “++ (++ = a single % value ≧ 40%)” and the IC50 is not above 100 nM. Besides, on ER-α, the Emax is not below 40% and the DC50 is not above 100 nM.

On to `COc1cc(C)c(/C(=C(\c2ccc(/C=C/C(=O)O)cc2)c2ccc(N3CCOCC3)cc2)C2CCC2)cn1` [Example 39, (E)-3-(4-((E)-2-Cyclobutyl-2-(6-methoxy-4-methylpyridin-3-yl)-1-(4-morpholinophenyl)vinyl)phenyl)acrylic acid], for which, in the assay on MCF-7 cells, the “MCF7 Viability Assay Max Response” value is “++ (++ = a single % value ≧ 40%)” and the IC50 was not above 100 nM. At ER-α, the Emax was not below 40% and the DC50 was not above 100 nM.

Consider `Cc1cccnc1/C(=C(\c1ccc(/C=C/C(=O)O)cc1)c1ccc(-c2cn[nH]c2)cc1)C1CCC1` [Example 40, (E)-3-(4-((E)-1-(4-(1H-Pyrazol-4-yl)phenyl)-2-cyclobutyl-2-(3-methylpyridin-2-yl)vinyl)phenyl)acrylic acid], for which, in the assay with MCF-7 cells, the “MCF7 Viability Assay Max Response” value is on record as “++ (++ = a single % value ≧ 40%)” and the IC50 was more than 100 nM. On ER-α, the Emax was not below 40% and the DC50 is not above 100 nM.

Turning to `O=C(O)/C=C/c1ccc(/C(=C(\c2ncccc2F)C2CCC2)c2ccc(-c3cn[nH]c3)cc2)cc1` [Example 41, (E)-3-(4-((E)-1-(4-(1H-Pyrazol-4-yl)phenyl)-2-cyclobutyl-2-(3-fluoropyridin-2-yl)vinyl)phenyl)acrylic acid], in the assay with MCF-7 cells, the “MCF7 Viability Assay Max Response” value is recorded as “++ (++ = a single % value ≧ 40%)” and the IC50 was more than 100 nM. Besides, on ER-α, the Emax is not below 40% and the DC50 was not above 100 nM.

As to `O=C(O)/C=C/c1ccc(/C(=C(\c2ncccc2Cl)C2CCC2)c2ccc(-c3cn[nH]c3)cc2)cc1` [Example 42, (E)-3-(4-((E)-1-(4-(1H-Pyrazol-4-yl)phenyl)-2-(3-chloropyridin-2-yl)-2-cyclobutylvinyl)phenyl)acrylic acid], in the assay on MCF-7 cells, the “MCF7 Viability Assay Max Response” value was “++ (++ = a single % value ≧ 40%)” and the IC50 is not above 100 nM. Also, on ER-α, the Emax was not below 40% and the DC50 was not above 100 nM.

Take `O=C(O)/C=C/c1ccc(/C(=C(\c2ncccc2Cl)C2CCC2)c2ccc(N3CCOCC3)cc2)cc1` [Example 43, (E)-3-(4-((E)-2-(3-Chloropyridin-2-yl)-2-cyclobutyl-1-(4-morpholinophenyl)vinyl)phenyl)acrylic acid]: in the assay with MCF-7 cells, the “MCF7 Viability Assay Max Response” value is reported as “++ (++ = a single % value ≧ 40%)” and the IC50 was not above 100 nM. Further, at ER-α, the Emax was not below 40% and the DC50 was not above 100 nM.

Consider `N#Cc1cc(Cl)ccc1/C(=C(\c1ccc(/C=C/C(=O)O)cc1)c1ccc(-c2cn[nH]c2)cc1)C1CCC1` [Example 44, (E)-3-(4-((E)-1-(4-(1H-Pyrazol-4-yl)phenyl)-2-(4-chloro-2-cyanophenyl)-2-cyclobutylvinyl)phenyl)acrylic acid], for which, in the assay on MCF-7 cells, the “MCF7 Viability Assay Max Response” value is given as “++ (++ = a single % value ≧ 40%)” and the IC50 was not above 100 nM. Moreover, on ER-α, the Emax is not below 40% and the DC50 is not above 100 nM.

For the compound `N#Cc1ccc(/C(=C(\c2ccc(/C=C/C(=O)O)cc2)c2ccc(N3CCOCC3)cc2)C2CCC2)c(Cl)c1` [Example 45, (E)-3-(4-((E)-2-(2-Chloro-4-cyanophenyl)-2-cyclobutyl-1-(4-morpholinophenyl)vinyl)phenyl)acrylic acid], in the assay on MCF-7 cells, the “MCF7 Viability Assay Max Response” value was “++ (++ = a single % value ≧ 40%)” and the IC50 was not above 100 nM. Further, on ER-α, the Emax was not below 40% and the DC50 was not above 100 nM.

Take `N#Cc1cc(Cl)ccc1/C(=C(\c1ccc(/C=C/C(=O)O)cc1)c1ccc(N2CCOCC2)cc1)C1CCC1` [Example 46, (E)-3-(4-((E)-2-(4-Chloro-2-cyanophenyl)-2-cyclobutyl-1-(4-morpholinophenyl)vinyl)phenyl)acrylic acid]: in the assay on MCF-7 cells, the “MCF7 Viability Assay Max Response” value is “++ (++ = a single % value ≧ 40%)” and the IC50 is not above 100 nM. Also, on ER-α, the Emax is not below 40% and the DC50 was not above 100 nM.

On to `COc1ccc(/C(=C(\c2ccc(/C=C/C(=O)O)cc2)c2ccc(N3CCOCC3)cc2)C2CCC2)c(C)c1` [Example 47, (E)-3-(4-((E)-2-Cyclobutyl-2-(4-methoxy-2-methylphenyl)-1-(4-morpholinophenyl)vinyl)phenyl)acrylic acid], for which, in the assay on MCF-7 cells, the “MCF7 Viability Assay Max Response” value was “++ (++ = a single % value ≧ 40%)” and the IC50 was not above 100 nM. For the same compound, at ER-α, the Emax was not below 40% and the DC50 was not above 100 nM.
